Source: ChEMBL document CHEMBL1201862, “PubChem BioAssay data set” (2004)
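Following 48 hours of exposure in 96-well plates, responses at five concentrations were used to interpolate endpoints linearly. GI50: concentration for 50% inhibition of growth.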 The source made the active and inactive calls. Cut-off read from the data, not from the text of the source: active = GI50 up to about 1.1 µM and inactive = higher.

How the values were obtained:
Test in all cases: inhibition of tumour cell growth, NCI panel, 48 h
SK-MEL-5 = test system: SK-MEL-5
HL-60 = test system: HL-60
OVCAR-3 = test system: OVCAR-3
SF-539 = test system: SF-539
IGROV-1 = test system: IGROV-1
SK-MEL-28 = test system: SK-MEL-28
HCC 2998 = test system: HCC 2998
UO-31 = test system: UO-31
RPMI-8226 = test system: RPMI-8226
TK-10 = test system: TK-10
NCI-H522 = test system: NCI-H522
HCT-15 = test system: HCT-15
NCI-H23 = test system: NCI-H23
Malme-3M = test system: Malme-3M
HOP-92 = test system: HOP-92
SNB-75 = test system: SNB-75
MOLT-4 = test system: MOLT-4
MDA-MB-231 = test system: MDA-MB-231
MDA-MB-435 = test system: MDA-MB-435
MCF7 = test system: MCF7

| SMILES | GI50 (SK-MEL-5) | GI50 (HL-60) | GI50 (OVCAR-3) | GI50 (SF-539) | GI50 (IGROV-1) | GI50 (SK-MEL-28) | GI50 (HCC 2998) | GI50 (UO-31) | GI50 (RPMI-8226) | GI50 (TK-10) | GI50 (NCI-H522) | GI50 (HCT-15) [µM] | GI50 (NCI-H23) | GI50 (Malme-3M) | GI50 (HOP-92) | GI50 (SNB-75) | GI50 (MOLT-4) | GI50 (MDA-MB-231) | GI50 (MDA-MB-435) | GI50 (MCF7) |
| --- | --- | --- | --- | --- | --- | --- | --- | --- | --- | --- | --- | --- | --- | --- | --- | --- | --- | --- | --- | --- |
| CN(C(=O)C12C3C4C5C3C1(C(=O)C13C6C7C8C6C1C8C73)C5C42)C(C)(C)C (stereo not given) | > 50 µM (inactive) | > 19.3 µM (inactive) | > 50 µM (inactive) | > 50 µM (inactive) | > 50 µM (inactive) | > 50 µM (inactive) | > 50 µM (inactive) | > 50 µM (inactive) | > 27.3 µM (inactive) | > 50 µM (inactive) | > 32.4 µM (inactive) | > 21.3 | > 50 µM (inactive) | > 50 µM (inactive) | > 50 µM (inactive) | > 33 µM (inactive) | 29.2 µM (inactive) | – | – | – |
| CCC(C)OC(=O)C1C2CCC(O2)C1C(=O)O (stereo not given) | > 100 µM (inactive) | > 100 µM (inactive) | > 100 µM (inactive) | 99.8 µM (inactive) | > 100 µM (inactive) | > 100 µM (inactive) | > 100 µM (inactive) | > 100 µM (inactive) | > 48.3 µM (inactive) | > 100 µM (inactive) | > 100 µM (inactive) | > 41.1 | > 100 µM (inactive) | > 100 µM (inactive) | > 66.4 µM (inactive) | > 100 µM (inactive) | > 87.1 µM (inactive) | – | – | – |
| Clc1ccc(C2=Nc3ccccc3SC(c3ccc(Cl)c(Cl)c3)C2)c(Cl)c1 (stereo not given) | 18 µM (inactive) | 8.45 µM (inactive) | 13.3 µM (inactive) | 17.7 µM (inactive) | 14.7 µM (inactive) | 15.7 µM (inactive) | 14.6 µM (inactive) | 14.4 µM (inactive) | 2.39 µM (inactive) | 20.6 µM (inactive) | 13.5 µM (inactive) | 9.71 | 15.3 µM (inactive) | 16.1 µM (inactive) | 13.8 µM (inactive) | 15.4 µM (inactive) | 4.9 µM (inactive) | – | – | – |
| OCC(O)C1OC2CC1Nc1ccccc1N2 (stereo not given) | > 100 µM (inactive) | > 100 µM (inactive) | > 100 µM (inactive) | > 88.7 µM (inactive) | > 100 µM (inactive) | > 100 µM (inactive) | > 100 µM (inactive) | > 100 µM (inactive) | > 100 µM (inactive) | > 100 µM (inactive) | > 100 µM (inactive) | > 100 | > 100 µM (inactive) | > 100 µM (inactive) | > 100 µM (inactive) | > 100 µM (inactive) | > 100 µM (inactive) | > 100 µM (inactive) | > 100 µM (inactive) | – |
| Clc1ccc(SCCCCCCCCCCSc2ccc(Cl)cc2)cc1 | > 55.1 µM (inactive) | > 100 µM (inactive) | > 56.8 µM (inactive) | > 100 µM (inactive) | > 100 µM (inactive) | > 100 µM (inactive) | > 46.1 µM (inactive) | > 100 µM (inactive) | > 100 µM (inactive) | > 61.9 µM (inactive) | > 100 µM (inactive) | > 54.2 | > 100 µM (inactive) | > 56.5 µM (inactive) | > 100 µM (inactive) | > 100 µM (inactive) | > 100 µM (inactive) | – | – | – |
| C/C(=N\NC(=O)c1ccncc1)c1ccccc1F | > 10 µM (inactive) | > 10 µM (inactive) | > 10 µM (inactive) | > 10 µM (inactive) | > 10 µM (inactive) | > 10 µM (inactive) | > 10 µM (inactive) | > 10 µM (inactive) | > 10 µM (inactive) | > 10 µM (inactive) | – | > 10 | > 10 µM (inactive) | > 10 µM (inactive) | 2.37 µM (inactive) | > 10 µM (inactive) | > 10 µM (inactive) | – | – | > 10 µM (inactive) |
| Cn1nc2ccc3nccc(N4CCN(CCO)CC4)c3c2n1 | > 100 µM (inactive) | – | > 100 µM (inactive) | – | > 100 µM (inactive) | > 100 µM (inactive) | > 100 µM (inactive) | > 100 µM (inactive) | – | > 100 µM (inactive) | > 100 µM (inactive) | 4.02 | > 100 µM (inactive) | > 100 µM (inactive) | – | > 100 µM (inactive) | 31.7 µM (inactive) | > 100 µM (inactive) | > 100 µM (inactive) | > 100 µM (inactive) |
| COc1ccc(/C=C/c2cc(OC)c(OC)c(OC)c2)cc1OC | > 74.5 µM (inactive) | > 70.3 µM (inactive) | > 100 µM (inactive) | > 86.1 µM (inactive) | > 100 µM (inactive) | 55.6 µM (inactive) | > 100 µM (inactive) | > 92.7 µM (inactive) | > 100 µM (inactive) | > 100 µM (inactive) | 68.5 µM (inactive) | > 56.2 | > 100 µM (inactive) | > 100 µM (inactive) | 80.5 µM (inactive) | > 44.3 µM (inactive) | > 100 µM (inactive) | – | – | – |
| CC(=O)N1CCN(C=S)CC1 | > 100 µM (inactive) | > 100 µM (inactive) | > 100 µM (inactive) | > 100 µM (inactive) | > 100 µM (inactive) | > 100 µM (inactive) | > 100 µM (inactive) | > 100 µM (inactive) | > 100 µM (inactive) | > 100 µM (inactive) | > 100 µM (inactive) | > 100 | > 100 µM (inactive) | > 100 µM (inactive) | > 100 µM (inactive) | > 100 µM (inactive) | > 100 µM (inactive) | – | – | – |
| CCOC(=O)c1[nH]c2nc(SC)nc(NC)c2c1N | 30.3 µM (inactive) | – | > 100 µM (inactive) | – | > 100 µM (inactive) | > 100 µM (inactive) | 87.5 µM (inactive) | > 100 µM (inactive) | 46 µM (inactive) | > 100 µM (inactive) | 51.4 µM (inactive) | 84.1 | > 100 µM (inactive) | > 100 µM (inactive) | – | 70.5 µM (inactive) | 68.2 µM (inactive) | > 100 µM (inactive) | > 100 µM (inactive) | – |
| CC(=O)NNc1nc(C)c(C(=O)NNC(=O)C(=O)Nc2c(C)cccc2C)s1 | 53 µM (inactive) | 25.9 µM (inactive) | 26.4 µM (inactive) | 60.5 µM (inactive) | 46.1 µM (inactive) | 76.6 µM (inactive) | 95.9 µM (inactive) | 53.8 µM (inactive) | 26.2 µM (inactive) | 77.1 µM (inactive) | 16.1 µM (inactive) | 32.3 | 24.7 µM (inactive) | 53.1 µM (inactive) | 40.4 µM (inactive) | 96.4 µM (inactive) | 22.6 µM (inactive) | – | – | – |
| CCOP(=O)(OCC)c1ccc(=O)[nH]c1-c1cccs1 | > 100 µM (inactive) | – | > 100 µM (inactive) | > 100 µM (inactive) | > 100 µM (inactive) | > 100 µM (inactive) | > 100 µM (inactive) | > 100 µM (inactive) | > 100 µM (inactive) | > 100 µM (inactive) | > 100 µM (inactive) | > 100 | > 100 µM (inactive) | > 100 µM (inactive) | > 100 µM (inactive) | > 100 µM (inactive) | > 100 µM (inactive) | – | > 100 µM (inactive) | > 100 µM (inactive) |
| CC(NS(=O)(=O)c1ccc([N+](=O)[O-])cc1)C(=O)O (stereo not given) | > 100 µM (inactive) | > 100 µM (inactive) | > 100 µM (inactive) | > 100 µM (inactive) | > 100 µM (inactive) | > 100 µM (inactive) | > 100 µM (inactive) | > 100 µM (inactive) | > 100 µM (inactive) | > 100 µM (inactive) | > 100 µM (inactive) | > 100 | > 100 µM (inactive) | > 100 µM (inactive) | > 100 µM (inactive) | 80.7 µM (inactive) | > 100 µM (inactive) | – | – | – |
| CCOC(=O)c1ccc(C)c(/N=N/N(C)C)c1 | > 100 µM (inactive) | > 100 µM (inactive) | > 100 µM (inactive) | > 100 µM (inactive) | > 100 µM (inactive) | > 100 µM (inactive) | > 100 µM (inactive) | 79.8 µM (inactive) | > 100 µM (inactive) | > 100 µM (inactive) | > 100 µM (inactive) | > 100 | > 100 µM (inactive) | > 100 µM (inactive) | > 100 µM (inactive) | > 100 µM (inactive) | > 100 µM (inactive) | – | – | – |
| CCOC(=O)c1c(CN2CCNCC2)nc2ccc(Cl)cc2c1-c1ccccc1 | 1.42 µM (inactive) | 1.98 µM (inactive) | 6.95 µM (inactive) | 2.56 µM (inactive) | 5 µM (inactive) | 3.83 µM (inactive) | 1.6 µM (inactive) | 3.32 µM (inactive) | 2.19 µM (inactive) | 5.07 µM (inactive) | 4.38 µM (inactive) | 3.91 | 10.4 µM (inactive) | 1.94 µM (inactive) | 1.17 µM (inactive) | 2.37 µM (inactive) | 1.86 µM (inactive) | – | 2.31 µM (inactive) | 11 µM (inactive) |
| CCc1cccc(NC(=O)c2cc(/C=C/c3ccccc3)nc(S)n2)c1 | > 100 µM (inactive) | > 100 µM (inactive) | > 100 µM (inactive) | > 100 µM (inactive) | > 100 µM (inactive) | > 100 µM (inactive) | > 100 µM (inactive) | > 100 µM (inactive) | > 100 µM (inactive) | > 100 µM (inactive) | > 100 µM (inactive) | > 100 | > 100 µM (inactive) | > 100 µM (inactive) | > 100 µM (inactive) | > 100 µM (inactive) | > 100 µM (inactive) | – | – | – |
